Experimental data reported in patent publication EP2698385A1, “Detection of synthetic cannabinoids” (priority 2012, dated 2014).

Legend:
Assay type in all cases: binding, sheep
[1] = test system: Antibody to Immunogen I; conditions: Cross-reactants at 100 ng/ml; Antibody to Immunogen I
Procedure: (§1) An aqueous solution of each immunogen was formulated with Freund's Complete Adjuvant (FCA) to form an emulsion consisting of 2mg/ml* immunogen in 50% (v/v) FCA. Three sheep were immunised with this emulsion (1° immunisation), 0.25ml being intramuscularly injected at each of four sites in the flank of each animal. Subsequent immunizations (boosts) contained 1mg/ml* immunogen. All boosts were emulsified in 50% (v/v) Freund's Incomplete Adjuvant (FIA) and were administered in the same manner as the 1° immunisation, at monthly intervals. Blood sampling took place 7 to 14 days after each boost. *The general procedure for immunogen administration is outlined above, however, it was necessary to deviate from this protocol in some cases, due to reduced immunogen concentrations (Immunogens II, IV, VII and VIII) and/or amount available (Immunogen VIII). Any deviations from the protocol described are outlined in Table 1A below and highlighted in bold. Table 1A: Amount and volume of immunogens administered for primary and subsequent boosts
(§2) The wells of an enhanced binding 96 well polystyrene microtiter plate were coated with IgG fraction of antiserum raised to Immunogen I or II, diluted in 10mM Tris, pH8.5 (125µl/well). The appropriate antibody coating dilution was determined using standard ELISA checkerboard techniques. The plate was incubated overnight at 4°C, washed 4 times over 10 minutes with Tris buffered saline containing Tween 20 (TBST) and tapped dry. Standard solutions (JWH-018 for Immunogens I and II) were applied at 0, 0.625, 1.25, 2.5, 5, 10, 20 and 40ng/ml and 50µl of each was added to the appropriate wells. 75µl of conjugate (appropriate hapten-HRP) diluted in Tris buffer (pH 7.2) containing EDTA, D-mannitol, sucrose, thimerosal and BSA, was added to each of the wells. The appropriate dilution of conjugate was also determined using standard ELISA checkerboard techniques. The plate was incubated at 25°C for 1 hour. Excess unbound conjugate was removed by washing 6 times over a 10 minute period with TBST. 125µl of tetramethylbenzidine (TMB) substrate solution was added to each well of the plate that was then incubated for 20 minutes in the dark at room temperature. The reaction was terminated by addition of 125µl 0.2M H2SO4 to each well. The absorbance was then measured at 450nm using a microtiter plate reader. The data are inputted to a computer program called 'KC Junior'. It is a 4 parameter fit curve and allow the calculatation of concentrations between the standard runs. This program is used to calculate the IC50s by dividing the 0ng/ml OD value by 2 and obtaining the concentration value from the curve for this OD.
In a similar manner to that described above, the wells of a 96-well microtiter plate were coated with the IgG fraction of the antiserum raised to Immunogens I or II. Standard solutions (JWH-018 for Immunogen I and II) were applied at 0, 0.625, 1.25, 2.5, 5, 10, 20 and 40ng/ml and conjugate was employed as detection reagent.
(§3) The data set our in Tables 3 and 4 are generated using antibodies raised against the indicated Immunogens in a competitive binding assay with the indicated tracers, using the indicated standards: Table 2
(§4) A450 = absorbance at 450nm B = absorbance at 450nm at xng/ml standard concentration B0 = absorbance at 450nm at 0ng/ml standard concentration IC50 = standard concentration which produces 50% B/B0
(§5) In order to determine the specificity of the competitive ELISAs, standard solutions of a range of structurally similar synthetic cannabinoids and their metabolites were prepared in TBST. Using the calibration curves generated and employing a single level of cross reactants, these were used to determine the cross-reactivity of each immunoassay with these substances. […]

[2] = test system: Antibody to Immunogen II; experiment: Competitive ELISA (Example 36), antibody RS1833B12, tracer ESC4555/LK959, standard JWH-018; conditions: Cross-reactants at 100 ng/ml; Antibody to Immunogen II
Procedure: as §1
as §2, with “The” for “The wells of an enhanced binding 96 well polystyrene microtiter plate were coated with IgG fraction of antiserum raised to Immunogen I or II, diluted in 10mM Tris, pH8.5 (125µl/well). The”, “Standard solutions (JWH-018 for Immunogens I and II) were applied at 0, 0.625, 1.25, 2.5, 5, 10, 20 and 40ng/ml and 50µl of each was added to the appropriate wells.” left out, “runs.” for “runs. This program is used to calculate the IC50s by dividing the 0ng/ml OD value by 2 and obtaining the concentration value from the curve for this OD.”
In a similar manner to that described above, the wells of a 96-well microtiter plate were coated with the IgG fraction of the antiserum raised to Immunogens I or II.
as §3
Using the calibration curves generated and employing a single level of cross reactants, these were used to determine the cross-reactivity of each immunoassay with these substances. These are the standards used for the IC50 and cross-reactivity data generation • Immunogen I - JWH-018 • Immunogen II - JWH-018 • Immunogen IV - JWH-018 • Immunogen VII - JWH-015 • Immunogen VIII - JWH-018 Table 4: Cross reactivity of the competitive ELISAs for synthetic cannabinoids and their metabolites

[3] = test system: Antibody to Immunogen IV; conditions: Cross-reactants at 100 ng/ml; Antibody to Immunogen IV
Procedure: as §1, §2
(§6) In a similar manner to that described above, the wells of a 96-well microtiter plate were coated with the IgG fraction of the antiserum raised to Immunogens IV, VII or VIII. Standard solutions (JWH-018 for Immunogens IV and VIII, JWH-015 for Immunogen VII) were prepared in TBST at 0, 1.25, 2.5, 5, 10, 20, 40 and 80ng/ml and conjugate was employed as detection reagent.
as §3, §4, §5

[4] = test system: Antibody to Immunogen VIII; conditions: Cross-reactants at 100 ng/ml; Antibody to Immunogen VIII
Procedure: as §1, §2, §6, §3, §4, §5

[5] = test system: Antibody to Immunogen VII; conditions: Cross-reactants at 100 ng/ml; Antibody to Immunogen VII
Procedure: as §1, §2, §6, §3, §4, §5

Compound: CC(O)CCCn1cc(C(=O)c2cccc3ccccc23)c2ccccc21 (racemic) [(±)-JWH 018 N-(4-hydroxypentyl) metabolite]
- %B/B0 [1]: 4.23%
- %B/B0 [2]: 53.99%
- %B/B0 [3]: 52.29%
- %B/B0 [4]: 21.94%
- %B/B0 [5]: 57.37%

Compound: CCCCCn1cc(C(=O)Cc2ccccc2Cl)c2ccccc21 [JWH-203]
- %B/B0 [1]: 72.55%
- %B/B0 [3]: 52.15%
- %B/B0 [4]: 9.19%
- %B/B0 [5]: 99.08%

Compound: CCCCCn1cc(C(=O)Cc2ccc(Cl)cc2)c2ccccc21 [JWH-206 (JWH-203 4-chloro isomer), JWH-203 4-chloro isomer]
- %B/B0 [1]: 75.96%
- %B/B0 [3]: 65.63%
- %B/B0 [4]: 10.55%
- %B/B0 [5]: 97.17%

Compound: CCCCCn1cc(C(=O)c2c(CC)ccc3ccccc23)c2ccccc21 [JWH-210 2-ethylnaphthyl isomer]
- %B/B0 [1]: 81.37%
- %B/B0 [3]: 53.97%
- %B/B0 [4]: 73.51%
- %B/B0 [5]: 96.13%

Compound: CCCCCn1cc(C(=O)c2ccc(CC)c3ccccc23)c2cc(O)ccc21 [JWH-210 5-hydroxyindole metabolite]
- %B/B0 [1]: 83.29%
- %B/B0 [3]: 48.91%
- %B/B0 [4]: 87.72%
- %B/B0 [5]: 100.43%

Compound: CCCCCn1cc(C(=O)c2cccc3ccc(CC)cc23)c2ccccc21 [JWH-210 7-ethylnaphthyl isomer or JWH-234, JWH-210 7-ethylnaphthyl isomer]
- %B/B0 [1]: 73.11%
- %B/B0 [3]: 27.07%
- %B/B0 [4]: 50.90%
- %B/B0 [5]: 100.55%

Compound: CCc1ccc(C(=O)c2cn(CCCCCC(=O)O)c3ccccc23)c2ccccc12 [JWH-210 N-(5-carboxypentyl) metabolite]
- %B/B0 [1]: 76.77%
- %B/B0 [3]: 85.29%
- %B/B0 [4]: 96.27%
- %B/B0 [5]: 96.07%

Compound: CCCCCn1cc(C(=O)c2ccc(CC)c3ccccc23)c2ccccc21 [JWH-210]
- %B/B0 [1]: 91.18%
- %B/B0 [3]: 5.53%
- %B/B0 [4]: 16.87%
- %B/B0 [5]: 96.62%

Compound: CCCCCn1cc(C(=O)Cc2ccccc2OC)c2ccccc21 [JWH-250]
- %B/B0 [1]: 78.94%
- %B/B0 [3]: 41.08%
- %B/B0 [4]: 9.40%
- %B/B0 [5]: 97.23%

Compound: CCCCCn1cc(C(=O)Cc2ccccc2C)c2ccccc21 [JWH-251]
- %B/B0 [1]: 68.01%
- %B/B0 [3]: 42.02%
- %B/B0 [4]: 9.12%
- %B/B0 [5]: 96.74%

Compound: CCCCCn1cc(C(=O)Cc2cccc(OC)c2)c2ccccc21 [JWH-302]
- %B/B0 [1]: 84.66%
- %B/B0 [3]: 45.67%
- %B/B0 [4]: 7.97%
- %B/B0 [5]: 104.92%

Compound: CCCCCn1cc(C(=O)c2cccc(OC)c2)c2ccccc21 [RCS-4 3-methoxy isomer]
- %B/B0 [1]: 31.19%
- %B/B0 [3]: 25.65%
- %B/B0 [4]: 10.95%
- %B/B0 [5]: 94.72%

Compound: COc1ccc(C(=O)c2cn(CCCC(C)O)c3ccccc23)cc1 (stereo not shown) [RCS-4 N-(4-hydroxypentyl) metabolite]
- %B/B0 [1]: 65.71%
- %B/B0 [3]: 59.16%
- %B/B0 [4]: 8.89%
- %B/B0 [5]: 95.72%

Compound: COc1ccc(C(=O)c2cn(CCCCCC(=O)O)c3ccccc23)cc1 [RCS-4 N-(5-carboxypentyl) metabolite]
- %B/B0 [1]: 77.12%
- %B/B0 [3]: 91.44%
- %B/B0 [4]: 91.97%
- %B/B0 [5]: 94.00%

Compound: COc1ccc(C(=O)c2cn(CCCCCO)c3ccccc23)cc1 [RCS-4 N-(5-hydroxypentyl) metabolite]
- %B/B0 [1]: 59.51%
- %B/B0 [3]: 61.03%
- %B/B0 [4]: 19.13%
- %B/B0 [5]: 94.55%

Compound: CCCCn1cc(C(=O)c2ccc(OC)cc2)c2ccccc21 [RCS-4-C4 homologue]
- %B/B0 [1]: 76.27%
- %B/B0 [3]: 27.17%
- %B/B0 [4]: 9.54%
- %B/B0 [5]: 100.20%

Compound: CCCCCn1cc(C(=O)c2ccc(OC)cc2)c2ccccc21 [RCS-4]
- %B/B0 [1]: 80.46%
- %B/B0 [3]: 19.21%
- %B/B0 [4]: 5.93%
- %B/B0 [5]: 93.51%

Compound: COc1cccc(CC(=O)c2cn(CCC3CCCCC3)c3ccccc23)c1 [RCS-8 3-methoxy isomer]
- %B/B0 [1]: 93.24%
- %B/B0 [3]: 89.43%
- %B/B0 [4]: 83.62%
- %B/B0 [5]: 93.73%

Compound: COc1ccc(CC(=O)c2cn(CCC3CCCCC3)c3ccccc23)cc1 [RCS-8 4-methoxy isomer]
- %B/B0 [1]: 94.94%
- %B/B0 [3]: 90.78%
- %B/B0 [4]: 100.72%
- %B/B0 [5]: 98.21%

Compound: COc1ccccc1CC(=O)c1cn(CCC2CCCCC2)c2ccccc12 [RCS-8 (SR-18), RCS-8]
- %B/B0 [1]: 82.65%
- %B/B0 [3]: 85.50%
- %B/B0 [4]: 88.79%
- %B/B0 [5]: 94.57%

Compound: COc1ccc(C(=O)c2c(C)n(CCN3CCOCC3)c3ccccc23)cc1 [WIN-48,098 (other name Pravadoline), Pravadoline]
- %B/B0 [1]: 90.05%
- %B/B0 [3]: 91.64%
- %B/B0 [4]: 97.90%
- %B/B0 [5]: 92.41%

Compound: CS(=O)(=O)O.Cc1c(C(=O)c2cccc3ccccc23)c2cccc3c2n1[C@@H](CN1CCOCC1)CO3 [Win 55,212-3 mesylate, Win 55,212-3]
- %B/B0 [1]: 34.00%
- %B/B0 [3]: 94.57%
- %B/B0 [4]: 101.30%
- %B/B0 [5]: 32.31%

Compound: (+)-CP 55,940
- %B/B0 [1]: 103.25%
- %B/B0 [3]: 91.38%
- %B/B0 [4]: 95.12%
- %B/B0 [5]: 97.15%

Compound: (+-)-CP 55,940 [((+-)-CP 55,940)]
- %B/B0 [1]: 100.61%
- %B/B0 [3]: 94.60%
- %B/B0 [4]: 100.25%
- %B/B0 [5]: 100.25%

Compound: (-)-CP 55,940
- %B/B0 [1]: 98.27%
- %B/B0 [3]: 93.02%
- %B/B0 [4]: 97.58%
- %B/B0 [5]: 101.15%

Compound: JWH 203 3-chloro isomer [JWH 203 3-chloro isomer (JWH-237)]
- %B/B0 [1]: 95.59%
- %B/B0 [3]: 55.09%
- %B/B0 [4]: 10.34%
- %B/B0 [5]: 97.42%

Compound: JWH-081 2-methoxynaphthyl isomer [JWH-081 2-methoxynaphthyl isomer or (JWH-267)]
- %B/B0 [1]: 69.58%
- %B/B0 [3]: 27.67%
- %B/B0 [4]: 58.20%
- %B/B0 [5]: 83.43%
